Starred links: 1 amine or outer side, 2 acyl side, 3 side chain; linkers in the order of their positions; H or OH if unused. Non-standard residues stand in square brackets, D forms with d. Residues, ends and D or L forms follow the SMILES beside them. *: point of attachment. X1 = O=C(CCCC[C@@H]1SC[C@@H]2NC(=O)N[C@@H]21)NCCCOCCOCCOCCCN*; pT = C[C@@H](OP(=O)(O)O)[C@H](N)C(=O)O; Suc = O=C(CCC(=O)[*:2])[*:1]
Legend:
Assay type in all cases: binding
14-3-3σ = target: T1, 14-3-3σ (Homo sapiens, UniProt P31947); test: biochemical
T1 construct: cDNAs encoding other full-length 14-3-3 isoforms β, τ, η, and σ were obtained as codon-optimized; made in house; host or cells: E. coli BL21(DE3)
T1 sequence (P31947 1-248): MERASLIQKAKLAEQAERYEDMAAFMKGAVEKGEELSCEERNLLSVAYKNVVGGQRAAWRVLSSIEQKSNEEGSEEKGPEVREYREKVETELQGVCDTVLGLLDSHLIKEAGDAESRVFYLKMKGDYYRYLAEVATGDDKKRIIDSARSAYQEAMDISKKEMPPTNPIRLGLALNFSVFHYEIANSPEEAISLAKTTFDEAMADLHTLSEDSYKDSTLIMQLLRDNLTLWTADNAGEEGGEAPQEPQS
Experimental: (§1) The seven full-length human 14-3-3 isoforms, produced as fusions to a maltose-binding protein (MBP), were analyzed for their interaction with four phospho-PBMs from E6 proteins of HPV types 16, 18, 33, and 35 belonging to subgroups 1 and 2 (as defined in Supplementary Fig. 1). For comparison, we also measured two non-viral phospho-PBMs originating from protein kinase RSK1[28]. We used a competitive fluorescence polarization (FP) assay that measures the displacement of a fluorescent tracer phosphopeptide (here, derived from the HSPB6 protein) bound beforehand to 14-3-3, by an increasing amount of the peptide of interest.
(§2) For affinity measurements, full-length human 14-3-3 constructs with an N-terminal MBP fusion were used. Plasmids containing the cDNAs of the full-length 14-3-3 isoforms ε, γ, and ζ were received from Prof. Lawrence Banks. cDNAs encoding other full-length 14-3-3 isoforms β, τ, η, and σ were obtained as codon-optimized for E. coli expression synthetic genes from IDT Technologies (Coralville, Iowa, USA). All 14-3-3 isoforms were fused via a three-alanine linker to the C terminus of a mutant MBP carrying the following amino acid substitutions facilitating crystallization: D83A, K84A, K240A, E360A, K363A, and D364A[62]. All resulting clones were verified by sequencing. The MBP-fused proteins were expressed in E. coli BL21(DE3) with IPTG induction. Proteins were affinity purified on an amylose column and were further purified by ion-exchange chromatography (HiTrap Q HP, GE Healthcare). Unfused 14-3-3 isoforms devoid of the flexible C-terminal tails (14-3-3βΔC, 14-3-3τΔC 14-3-3εΔC) were expressed using IPTG induction and purified by subtractive IMAC and SEC[40]. Protein concentrations were determined by UV spectroscopy. The samples were supplemented with glycerol and TCEP before aliquoting and freezing in liquid nitrogen.
(§3) Unless otherwise stated, all phosphopeptide-binding measurements were performed using full-length 14-3-3 proteins fused to the C terminus of MBP, favoring optimal solubility and a standardized parallel purification scheme.
(§4) FP was measured with a PHERAstar (BMG Labtech, Offenburg, Germany) microplate reader by using 485 ± 20 and 528 ± 20 nm band-pass filters (for excitation and emission, respectively). In direct FP measurements, a dilution series of the 14-3-3 protein was prepared in 96-well plates (96-well skirted PCR plate, 4ti-0740, 4titude, Wotton, UK) in a 20 mM HEPES pH 7.5 buffer containing 150 mM NaCl, 0.5 mM TCEP, 0.01% Tween 20, 50 nM fluorescently labeled fpB6 peptide, and 100 μM FSC, if indicated. The volume of the dilution series was 40 μl, which was later divided into three technical replicates of 10 μl upon transferring to 384-well micro-plates (low binding microplate, 384 well, E18063G5, Greiner Bio-One, Kremsmünster, Austria). In total, polarization of the probe was measured at eight different protein concentrations (whereas one contained no protein and corresponded to the free peptide). In competitive FP measurements, the same buffer was supplemented with the protein to achieve a complex formation of 60–80%, based on the direct titration. Then, this mixture was used for creating a dilution series of the unlabeled competitor (i.e., the studied peptides) and the measurement was carried out identically as in the direct experiment.
(§5) All FP experiments were done in triplicates. Analysis of FP experiments were carried out using ProFit, an in-house developed, Python-based fitting program. ProFit utilizes a Monte Carlo approach to take into account experimental variability. It generates hundreds of simulated datasets, based on the experimental data variance and fits direct and competitive measurements in pairs.

14-3-3β = target: T2, 14-3-3β (Homo sapiens, UniProt P31946); test: biochemical
T2 construct: cDNAs encoding other full-length 14-3-3 isoforms β, τ, η, and σ were obtained as codon-optimized; made in house; host or cells: E. coli BL21(DE3)
T2 sequence (P31946 1-246): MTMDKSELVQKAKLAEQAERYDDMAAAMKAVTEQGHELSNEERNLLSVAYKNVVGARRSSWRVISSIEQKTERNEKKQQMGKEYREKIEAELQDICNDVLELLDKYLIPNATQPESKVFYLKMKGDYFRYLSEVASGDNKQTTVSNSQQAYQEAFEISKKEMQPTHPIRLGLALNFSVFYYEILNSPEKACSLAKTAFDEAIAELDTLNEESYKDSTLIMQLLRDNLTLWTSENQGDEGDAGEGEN
Experimental: as §1, §2, §3, §4, §5

14-3-3τ = target: T3, 14-3-3τ (Homo sapiens, UniProt P27348); test: biochemical
T3 construct: cDNAs encoding other full-length 14-3-3 isoforms β, τ, η, and σ were obtained as codon-optimized; made in house; host or cells: E. coli BL21(DE3)
T3 sequence (P27348 1-245): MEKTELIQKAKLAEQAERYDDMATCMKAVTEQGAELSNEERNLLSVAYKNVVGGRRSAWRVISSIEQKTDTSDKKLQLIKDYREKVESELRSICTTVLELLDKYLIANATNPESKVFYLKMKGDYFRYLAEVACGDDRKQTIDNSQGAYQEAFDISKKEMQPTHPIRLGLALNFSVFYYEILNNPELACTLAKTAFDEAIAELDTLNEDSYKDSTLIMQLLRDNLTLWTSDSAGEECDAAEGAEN
Experimental: as §1, §2, §3, §4, §5

[1] = target: seven human 14-3-3 isoforms; test: Affinities averaged or compared across the 14-3-3 family (ΔΔGav, KD ratios, affinity maps); conditions: for KD ratios, compared to LRRK2 pS910/pS935, 14-3-3β / KD ratios, compared to LRRK2 pS910/pS935, 14-3-3γ / KD ratios, compared to LRRK2 pS910/pS935, 14-3-3ζ / KD ratios, compared to LRRK2 pS910/pS935, 14-3-3η / KD ratios, compared to LRRK2 pS910/pS935, 14-3-3τ / KD ratios, compared to LRRK2 pS910/pS935, average / KD ratios, compared to LRRK2 pS910/pS935, 14-3-3ε / KD ratios, compared to LRRK2 pS910/pS935, 14-3-3σ: Figure 4 panel b; for KD ratios, compared to LRRK2 pS910/pS935, average: average over the isoforms; for KD ratios, compared to 14-3-3γ, 14-3-3β / KD ratios, compared to 14-3-3γ, 14-3-3γ / KD ratios, compared to 14-3-3γ, 14-3-3ζ / KD ratios, compared to 14-3-3γ, 14-3-3η / KD ratios, compared to 14-3-3γ, 14-3-3τ / KD ratios, compared to 14-3-3γ, 14-3-3ε / KD ratios, compared to 14-3-3γ, 14-3-3σ: Figure 4 panel c; for binding to 14-3-3 proteins: competitive FP, seven MBP-fused full-length 14-3-3 isoforms, result in words
Source text: Former studies have measured the binding of the seven human 14-3-3 isoforms to unrelated phospho-motifs derived from Cystic Fibrosis Transmembrane Conductance Regulator (CFTR), Leucine-Rich Repeat Kinase 2 (LRRK2), Potassium channel subfamily K members (TASK1/3), C-Raf, the p65 subunit of the NF-κB transcription factor, and from Ubiquitin carboxyl-terminal hydrolase 8 (USP8), representing a wide variety of different 14-3-3-binding motifs, including C-terminal, internal, monovalent, or divalent motifs[40],[44]–[48].
(gray background). The color scale is either based on affinity values or on KD ratios. √ denotes affinities weaker than the limit of quantitation of the experimental assays. b Same map as in a, normalized to the strongest 14-3-3-binding motif. […] Source data are provided as a Source Data file.
All binding data and the obtained fits are provided as Supplementary Data File 1.

[2] = Figure 4 panel a, unit from the colour scale line, motifs measured in this work

SMILES | Kd (14-3-3σ) | Kd (14-3-3β) | Kd (14-3-3τ) | KD ratios, compared to LRRK2 pS910/pS935, 14-3-3β [1] | KD ratios, compared to LRRK2 pS910/pS935, 14-3-3γ [1] | KD ratios, compared to LRRK2 pS910/pS935, 14-3-3ζ [1] | KD ratios, compared to LRRK2 pS910/pS935, 14-3-3η [1] | KD ratios, compared to LRRK2 pS910/pS935, 14-3-3τ [1] | KD ratios, compared to LRRK2 pS910/pS935, average [1] | KD ratios, compared to 14-3-3γ, 14-3-3β [1] | KD ratios, compared to 14-3-3γ, 14-3-3γ [1] | KD ratios, compared to 14-3-3γ, 14-3-3ζ [1] | KD ratios, compared to 14-3-3γ, 14-3-3η [1] | KD ratios, compared to 14-3-3γ, 14-3-3τ [1] | binding to 14-3-3 proteins [1] | KD ratios, compared to LRRK2 pS910/pS935, 14-3-3ε [1] | KD ratios, compared to LRRK2 pS910/pS935, 14-3-3σ [1] | KD ratios, compared to 14-3-3γ, 14-3-3ε [1] | KD ratios, compared to 14-3-3γ, 14-3-3σ [1] | other results
CC(C)C[C@H](NC(=O)[C@H](CCC(N)=O)NC(=O)[C@@H](NC(=O)[C@H](CCC(=O)O)NC(=O)[C@H](CCCNC(=N)N)NC(=O)[C@H](CCCNC(=N)N)NC(=O)[C@@H](NC(=O)[C@H](CCCNC(=N)N)NC(=O)[C@H](CO)NC(=O)[C@H](CO)NC(=O)CCC(=O)NCCCOCCOCCOCCCNC(=O)CCCC[C@@H]1SC[C@@H]2NC(=O)N[C@@H]21)[C@@H](C)O)[C@@H](C)OP(=O)(O)O)C(=O)O [pHPV16E6] | > 300 µM | 159 ± 45 µM | 144 ± 28 µM | 7536 | 11625 | 15333 | 16771 | 15158 | 13000 | 4.27 | 1.00 | 1.98 | 2.16 | 3.87 | detectably bound | – | – | – | – | Binding affinities (KD) of various 14-3-3-binding motifs, 14-3-3σ (14-3-3σ; [2]): √; Binding affinities (KD) of various 14-3-3-binding motifs, 14-3-3τ (14-3-3τ; [2]): 144 µM
CC(C)C[C@H](NC(=O)[C@H](CCCNC(=N)N)NC(=O)CCC(=O)NCCCOCCOCCOCCCNC(=O)CCCC[C@@H]1SC[C@@H]2NC(=O)N[C@@H]21)C(=O)N[C@@H](CCC(N)=O)C(=O)N[C@@H](CCCNC(=N)N)C(=O)N[C@@H](CCCNC(=N)N)C(=O)N[C@@H](CCCNC(=N)N)C(=O)N[C@@H](CCC(=O)O)C(=O)N[C@H](C(=O)N[C@@H](CCC(N)=O)C(=O)N[C@H](C(=O)O)C(C)C)[C@@H](C)OP(=O)(O)O [pHPV18E6] | 139 ± 24 µM | 42.2 ± 6.3 µM | 37.8 ± 6 µM | 2000.00 | 3437.50 | 4666.67 | 4916.67 | 3978.95 | 4200.00 | 3.84 | 1.00 | 2.04 | 2.15 | 3.44 | detectably bound | 8145.16 | 2293.73 | 9.18 | 12.64 | –
CC(C)C[C@H](NC(=O)[C@H](C)NC(=O)[C@@H](NC(=O)[C@H](CCC(=O)O)NC(=O)[C@H](CCCNC(=N)N)NC(=O)[C@H](CCCNC(=N)N)NC(=O)[C@H](CCCNC(=N)N)NC(=O)[C@H](CO)NC(=O)[C@H](CCCNC(=N)N)NC(=O)[C@H](CO)NC(=O)CCC(=O)NCCCOCCOCCOCCCNC(=O)CCCC[C@@H]1SC[C@@H]2NC(=O)N[C@@H]21)[C@@H](C)OP(=O)(O)O)C(=O)O [pHPV33E6] ({X1-Suc}-SRSRRRE[pT]AL-OH) | 6.77 µM | 4.05 µM | 3.52 µM | 191.94 | 293.75 | 566.67 | 412.50 | 370.53 | 400.00 | 4.31 | 1.00 | 2.89 | 2.11 | 3.74 | detectably bound | 830.65 | 111.72 | 10.96 | 7.20 | ΔΔGav (average 14-3-3 binding free energy difference) relative to p35E6 ([1]; averaged over 14-3-3 isoforms, 295 K): –10.9 ± 0.7 kJ/mol; KD ratio relative to p35E6 ([1]; corresponds to ΔΔGav averaged over 14-3-3 isoforms): ~100 fold
CC(C)[C@H](NC(=O)[C@H](C)NC(=O)[C@@H](NC(=O)[C@H](CCC(=O)O)NC(=O)[C@H](CCCNC(=N)N)NC(=O)[C@H](CCCNC(=N)N)NC(=O)[C@@H](NC(=O)[C@@H]1CCCN1C(=O)[C@H](CCCCN)NC(=O)[C@H](CO)NC(=O)CCC(=O)NCCCOCCOCCOCCCNC(=O)CCCC[C@@H]1SC[C@@H]2NC(=O)N[C@@H]21)[C@@H](C)O)[C@@H](C)OP(=O)(O)O)C(=O)O [pHPV35E6E-1A] ({X1-Suc}-SKPTRRE[pT]AV-OH) | 44.1 µM | 20.2 µM | 21.5 µM | 957.35 | 2909.38 | 3666.67 | 2583.33 | 2263.16 | 2200.00 | 2.17 | 1.00 | 1.89 | 1.33 | 2.31 | – | 2572.58 | 727.72 | 3.43 | 4.74 | –

Source: publication PMC7961048, “Hierarchized phosphotarget binding by the seven human 14-3-3 isoforms” (Nature Communications, 2021)
